How the values were obtained:
Type in all cases: cell-based, human
[1] = tested on: HLA I surface expression on MCC cell lines; test: Flow cytometry for HLA-I surface expression (anti-HLA-ABC, W6/32) in MCC lines at baseline and after interferon or MEK inhibitor treatment
Protocol: The overlaid black line plot indicates the percentage of tumor cells that stained positive for HLA-I by IHC of the corresponding original tumor (right y-axis).
Representative histogram plots show cells stained with anti-HLA class I or isotype antibodies. The experiment was performed in the MCPyV− line MCC-290 (left) and the MCPyV+ line MCC-301 (right).
Cells were dissociated with Versene and incubated with 5 μL Human TruStain FcX (Fc receptor blocking solution; Biolegend, Dedham, Mass.) per million cells in […] at room temperature for 10 min. Fluorochrome-conjugated antibodies or respective isotype controls were immediately added and incubated for another 30 min at 4° C. Cells were then washed once with PBS and resuspended in PBS containing 4% paraformaldehyde and analyzed on LSR Fortessa cytometers. Additional steps were described for individual experiments as below.

[2] = tested on: HLA class I bound peptides of MCC cell lines; test: HLA class I immunoprecipitation and LC-MS/MS immunopeptidome of MCC tumors and cell lines +/- IFNγ
Excerpt: CL=cell line (left). Correlation heatmap of peptide sequences between MCC lines at baseline and after IFN-γ treatment in motif space (right).
HLA molecules are immunoprecipitated from tumor and cell line material, peptides are eluted from HLA complex and analyzed by LC-MS/MS. After database searching, peptides are assigned to their most likely allele by prediction in HLAthena.
Up to 40 million MCC cells were immunoprecipitated. Briefly, MCC cells were harvested and lysed in ice-cold lysis buffer containing […] (pH 8.0), 1 mM EDTA (pH 8.0), 0.1M sodium chloride, Triton X-100, 0.06M octyl 3-d-glucopyranoside, 100 U/mL DNAse I, 1 mM phenylmethanesulfonyl fluoride (all from Sigma Aldrich), protease inhibitor cocktail (Roche Diagnostics, Indianapolis, Ind.). Cell lysates were centrifuged at 12,700 rpm at 4° C. for 22 min. […] Peptides of up to three IPs were combined, acid eluted, and analyzed using LC/MS/MS as described previously (Abelin, Keskin Immunity). […] Peptides were eluted in a 6-30% gradient (EasyLC 1000 or 1200, ThermoFisher Scientific) and analyzed on a QExactive Plus or Fusion Lumos (ThermoFisher Scientific). […]
For detection of the large T antigen peptide, 3 Ips of a 367 Cell line treated with IFNγ were pooled, acid eluted, fractionated using stage tip basic reverse phase separation and fractions were analyzed on a Fusion Lumos equipped with a FAIMSpro interface (Klaeger et al., in preparation).
Mass spectra were interpreted using Spectrum Mill software package v7.1 pre-Release (Agilent Technologies, Santa Clara, Calif.). […] MS/MS spectra were searched against a protein sequence database that contained 98,298 entries, including all UCSC Genome Browser genes with hg19 annotation of the genome and its protein coding transcripts (63,691 entries), common human virus sequences (30,181 entries), recurrently mutated proteins observed in tumors from 26 tissues (4,167 entries), 264 common laboratory contaminants as well as protein sequences containing somatic mutations detected in MCC cell lines. […]

class I gene transcripts = test: RNA-seq of MCC lines before and after IFN-γ stimulation
Protocol: For samples from the MCC tumors and newly generated cell lines, RNA was first assessed for quality using the Agilent Bioanalyzer (DV200 metric). 100 ng of RNA were used as the input for first strand cDNA synthesis using Superscript III reverse transcriptase and Illumina's TruSeq RNA Access Sample Prep Kit. Synthesis of the second strand of cDNA was followed by indexed adapter ligation with UMI (unique molecular index) adaptors. Subsequent PCR amplification enriched for adapted fragments. Amplified libraries were quantified, normalized, pooled, and hybridized with exome targeting oligos. Following hybridization, bead clean-up, elution, and PCR was performed to prepare library pools for sequencing on Illumina flowcell lanes. Transcriptomes were sequenced to a coverage of at least 50 million reads in pairs.
Gene counts were obtained from BAM files using featureCounts version 2.0.0. Very lowly expressed genes with average count across samples less than 1 were excluded from analysis. […]
Differential expression analysis was carried out between IFN-γ plus and minus samples (adjusting for viral status as a covariate) using the negative binomial GLM Wald test of DESeq2, where significance was assessed using the p-values adjusted for multiple comparisons under default settings. […]

With “IFN-y: type II interferon, recombinant human, used to treat MCC cells” the “HLA I surface expression, median fold increase by MFI” value ([1]; IFN-y exposure, the 8 inducible of 11 MCC lines, pan-class I anti-HLA-ABC antibody, median) was 5.7 fold, the “HLA I surface expression, range of fold increase by MFI” value ([1]; IFN-y exposure, the 8 inducible of 11 MCC lines, range) was 2.5-12.4 fold and the “HLA I surface expression response” value ([1]; three lines: MCC-336, -350, -358) was “not responsive”. The “number of detected peptides presented on HLA Class I” value ([2]; tumor derived cell lines, FIG. 3B) was “increased”.
In the case of “IFN-γ: interferon gamma used to stimulate MCC cell lines”, the “abundance of class I bound peptides, median fold increase” value ([2]; across 4 cell lines, after IFN-γ stimulation vs baseline) is reported as 25 fold, the “frequencies of peptides mapping to each HLA allele” value ([2]; cell lines exposed or not to IFN-γ) is reported as “increase in HLA-B-presented peptides” and the “class I gene transcripts” value (class I gene transcripts; MCC lines, IFN-γ treatment) is reported as “markedly upregulated”. For the same substance, the “HLA-A, -B, and -C mRNA upregulation” value (class I gene transcripts; MCC-336 (non-IFN-γ-responsive)) was “lack of IFN-induced HLA-A, -B, and -C mRNA upregulation”.

From patent US20230203485A1, “METHODS FOR MODULATING MHC-I EXPRESSION AND IMMUNOTHERAPY USES THEREOF” (Dana-Farber Cancer Institute, Inc., priority 2020, published 2023)
